# Reference: US9322066B2, “Predictors for cancer treatment” (priority 2011, dated 2016)
# Tested on: relapsed or refractory, rituximab-naive or -sensitive follicular B-cell NHL
# Experiment: Treatment free interval, Vc-R vs rituximab study, by biomarker
# Format: in vivo, human
# Design: Treatment Free Interval, Median: unit not given here
# Text: Non-Hodgkin lymphoma (NHL) encompasses several unique malignant lymphoid disease entities that vary in clinical behavior, morphologic appearance, immunologic, and molecular phenotype. […] A randomized, open-label, active-controlled, multicenter, multinational, prospective study to compare the efficacy and safety of the combination of bortezomib and rituximab (Vc-R) to single-agent rituximab in subjects who have relapsed or refractory, rituximab-naive or -sensitive follicular B-cell NHL was performed.
# Subjects were centrally randomized to Treatment Groups A (Vc-R) or B (rituximab) in a 1:1 ratio taking into account the following stratification factors: • Follicular Lymphoma International Prognostic Index (FLIPI) score (low [0 or 1 factor], intermediate [2 factors], high [≧3 factors]); • Prior rituximab therapy (yes, no); • Time since last dose of anti-lymphoma therapy (≦1 year, >1 year); • Region (United States/Canada, European Union, Rest of World).
# The following clinical endpoints were included in the analysis within each treatment group and an overall comparison was made with the biomarker-related endpoints: Progression-free survival, defined as the interval between the date of randomization and the date of progressive disease (PD) or death, whichever is first reported in the ITT population; overall survival; overall response rate (complete response [CR]+CR unconfirmed [CRu]+partial response [PR]); overall CR rate (CR+CRu); duration of response; time to next anti-lymphoma therapy; and treatment free interval.
# [1] = P65 % NUCLEAR STAINING: 0, 1 Prior Line of Therapy, IRC Review
# [2] = P65 % NUCLEAR STAINING: ≦5%, 2 Prior Lines of Therapy, IRC Review
# [3] = P65 % NUCLEAR STAINING: ≦5%, 5 Prior Lines of Therapy, IRC Review
# [4] = P65 % NUCLEAR STAINING: ≦5%, Prior Rituximab Therapy, IRC Review
# [5] = P65 % NUCLEAR STAINING: ≦5%, ≦65 years old, IRC Review
# [6] = P65 % POSITIVE CYTOPLASMIC SIGNAL: >90%, 1 Prior Line of Therapy, IRC Review
# [7] = P65 % POSITIVE CYTOPLASMIC SIGNAL: >90%, No Subgroup, IRC Review
# [8] = P65 % POSITIVE CYTOPLASMIC SIGNAL: >90%, White, IRC Review
# [9] = P65 % POSITIVE CYTOPLASMIC SIGNAL: >90%, ≦65 years old, IRC Review
# [10] = P65 INTENSITY CYTOPLASMIC SIGNAL: ≦1+, Ann Arbor Stage III, IRC Review
# [11] = P65 INTENSITY CYTOPLASMIC SIGNAL: ≧2+, 1 Prior Line of Therapy, IRC Review
# [12] = P65 INTENSITY CYTOPLASMIC SIGNAL: ≧2+, ≦65 years old, IRC Review
# [13] = PSMB1/A171S: G/G, >1 year since last anti-lymphoma treatment, IRC Review
# [14] = PSMB1/A171S: G/G, No Subgroup, IRC Review
# [15] = PSMB1/A171S: G/G, ≦65 years old, IRC review
# [16] = PSMB1/I208N: T/T, >1 year since last anti-lymphoma treatment, IRC Review
# [17] = PSMB1/I208N: T/T, No Subgroup, IRC Review
# [18] = PSMB1/I208N: T/T, ≦65 years old, IRC review
# [19] = PSMB1/P11A: C/G, European Union, IRC Review
# [20] = PSMB1/P11A: C/G, No Subgroup, IRC Review
# [21] = PSMB1/P11A: C/G, ≦65 years old, IRC review
# [22] = PSMB1/P11A: G/G, ≦65 years old, IRC Review
# [23] = PSMB1/P193L: C/C, >1 year since last anti-lymphoma treatment, IRC Review
# [24] = PSMB1/P193L: C/C, ≦65 years old, IRC review
# [25] = PSMB2/E49X: G/G, >1 year since last anti-lymphoma treatment, IRC Review
# [26] = PSMB2/E49X: G/G, ≦65 years old, IRC review
# [27] = PSMB2/G187V: G/G, >1 year since last anti-lymphoma treatment, IRC Review
# [28] = PSMB2/G187V: G/G, ≦65 years old, IRC review
# [29] = PSMB2/L159F: C/C, >1 year since last anti-lymphoma treatment, IRC Review
# [30] = PSMB2/L159F: C/C, ≦65 years old, IRC review
# [31] = PSMB5/L206M: C/C, >1 year since last anti-lymphoma treatment, IRC Review
# [32] = PSMB5/L206M: C/C, ≦65 years old, IRC review
# [33] = PSMB5/R24C: C/C, >1 year since last anti-lymphoma treatment, IRC Review
# [34] = PSMB5/R24C: C/C, ≦65 years old, IRC review
# [35] = PSMB6/A234D: C/C, >1 year since last anti-lymphoma treatment, IRC Review
# [36] = PSMB6/A234D: C/C, ≦65 years old, IRC review
# [37] = PSMB6/P107A: C/C, >1 year since last anti-lymphoma treatment, IRC Review
# [38] = PSMB6/P107A: C/C, ≦65 years old, IRC review
# [39] = PSMB8/G8R: G/G, >1 year since last anti-lymphoma treatment, IRC Review
# [40] = PSMB8/G8R: G/G, ≦65 years old, IRC review
# [41] = PSMB8/R141C: C/C, >1 year since last anti-lymphoma treatment, IRC Review
# [42] = PSMB8/R141C: C/C, ≦65 years old, IRC review
# [43] = PSMB8/V182M: G/G, >1 year since last anti-lymphoma treatment, IRC review
# [44] = PSMB8/V182M: G/G, ≦65 years old, IRC review
# [45] = PSMB9/G9E: G/G, >1 year since last anti-lymphoma treatment, IRC review
# [46] = PSMB9/G9E: G/G, ≦65 years old, IRC review
# [47] = PSMB9/V32I: C/C, >1 year since last anti-lymphoma treatment, IRC review
# [48] = PSMB9/V32I: C/C, High Tumor Burden, IRC Review
# [49] = PSMB9/V32I: C/C, ≦65 years old, IRC review
substance,measurement,setting,value
rituximab,"Treatment Free Interval, Median","P27 SIGNAL INTENSITY: ≧2+, Prior Rituximab Therapy, IRC Review",272
same,"Treatment Free Interval, Evt/N",[1],54/79
same,"Treatment Free Interval, Median",[1],406
same,"Treatment Free Interval, Evt/N",[2],7/9
same,"Treatment Free Interval, Median",[2],85
same,"Treatment Free Interval, Evt/N",[3],3/3
same,"Treatment Free Interval, Median",[3],95
same,"Treatment Free Interval, Evt/N",[4],16/21
same,"Treatment Free Interval, Median",[4],93
same,"Treatment Free Interval, Evt/N",[5],19/29
same,"Treatment Free Interval, Median",[5],234
same,"Treatment Free Interval, Evt/N",[6],59/89
same,"Treatment Free Interval, Median",[6],409
same,"Treatment Free Interval, Evt/N",[7],129/204
same,"Treatment Free Interval, Median",[7],363
same,"Treatment Free Interval, Evt/N",[8],113/179
same,"Treatment Free Interval, Median",[8],363
same,"Treatment Free Interval, Evt/N",[9],103/154
same,"Treatment Free Interval, Median",[9],343
same,"Treatment Free Interval, Evt/N",[10],10/11
same,"Treatment Free Interval, Median",[10],119
same,"Treatment Free Interval, Evt/N",[11],54/85
same,"Treatment Free Interval, Median",[11],427
same,"Treatment Free Interval, Evt/N",[12],101/152
same,"Treatment Free Interval, Median",[12],343
same,"Treatment Free Interval, Evt/N",[13],98/165
same,"Treatment Free Interval, Median",[13],547
same,"Treatment Free Interval, Evt/N",[14],173/276
same,"Treatment Free Interval, Median",[14],406
same,"Treatment Free Interval, Evt/N",[15],130/198
same,"Treatment Free Interval, Median",[15],344
same,"Treatment Free Interval, Evt/N",[16],98/165
same,"Treatment Free Interval, Median",[16],547
same,"Treatment Free Interval, Evt/N",[17],173/276
same,"Treatment Free Interval, Median",[17],406
same,"Treatment Free Interval, Evt/N",[18],130/198
same,"Treatment Free Interval, Median",[18],344
same,"Treatment Free Interval, Evt/N",[19],34/49
same,"Treatment Free Interval, Median",[19],309
same,"Treatment Free Interval, Median","PSMB1/P11A: C/G, Female, IRC Review",406
same,"Treatment Free Interval, Evt/N",[20],78/127
same,"Treatment Free Interval, Median",[20],409
same,"Treatment Free Interval, Evt/N",[21],63/96
same,"Treatment Free Interval, Median",[21],406
same,"Treatment Free Interval, Evt/N",[22],21/25
same,"Treatment Free Interval, Median",[22],269
same,"Treatment Free Interval, Evt/N",[23],98/165
same,"Treatment Free Interval, Median",[23],547
same,"Treatment Free Interval, Median","PSMB1/P193L: C/C, No Subgroup, IRC Review",406
same,"Treatment Free Interval, Evt/N",[24],130/198
same,"Treatment Free Interval, Median",[24],344
same,"Treatment Free Interval, Evt/N",[25],98/165
same,"Treatment Free Interval, Median",[25],547
same,"Treatment Free Interval, Evt/N",[26],130/198
same,"Treatment Free Interval, Median",[26],344
same,"Treatment Free Interval, Evt/N",[27],98/165
same,"Treatment Free Interval, Median",[27],547
same,"Treatment Free Interval, Evt/N",[28],130/198
same,"Treatment Free Interval, Median",[28],344
same,"Treatment Free Interval, Evt/N",[29],98/165
same,"Treatment Free Interval, Median",[29],547
same,"Treatment Free Interval, Evt/N",[30],130/198
same,"Treatment Free Interval, Median",[30],344
same,"Treatment Free Interval, Evt/N",[31],98/165
same,"Treatment Free Interval, Median",[31],547
same,"Treatment Free Interval, Evt/N",[32],130/198
same,"Treatment Free Interval, Median",[32],344
same,"Treatment Free Interval, Evt/N",[33],81/137
same,"Treatment Free Interval, Median",[33],507
same,"Treatment Free Interval, Evt/N",[34],113/170
same,"Treatment Free Interval, Median",[34],344
same,"Treatment Free Interval, Evt/N",[35],98/165
same,"Treatment Free Interval, Median",[35],547
same,"Treatment Free Interval, Evt/N",[36],130/198
same,"Treatment Free Interval, Median",[36],344
same,"Treatment Free Interval, Evt/N",[37],95/159
same,"Treatment Free Interval, Median",[37],561
same,"Treatment Free Interval, Evt/N",[38],125/189
same,"Treatment Free Interval, Median",[38],363
same,"Treatment Free Interval, Evt/N",[39],91/155
same,"Treatment Free Interval, Median",[39],562
same,"Treatment Free Interval, Evt/N",[40],123/189
same,"Treatment Free Interval, Median",[40],344
same,"Treatment Free Interval, Evt/N",[41],98/165
same,"Treatment Free Interval, Median",[41],547
same,"Treatment Free Interval, Evt/N",[42],130/198
same,"Treatment Free Interval, Median",[42],344
same,"Treatment Free Interval, Evt/N",[43],98/165
same,"Treatment Free Interval, Median",[43],547
same,"Treatment Free Interval, Evt/N",[44],130/198
same,"Treatment Free Interval, Median",[44],344
same,"Treatment Free Interval, Evt/N",[45],97/163
same,"Treatment Free Interval, Median",[45],547
same,"Treatment Free Interval, Evt/N",[46],129/196
same,"Treatment Free Interval, Median",[46],344
same,"Treatment Free Interval, Evt/N",[47],96/160
same,"Treatment Free Interval, Median",[47],507
same,"Treatment Free Interval, Evt/N",[48],106/142
same,"Treatment Free Interval, Median",[48],234
same,"Treatment Free Interval, Evt/N",[49],127/192
same,"Treatment Free Interval, Median",[49],344
